The text below walks through data of US11420973B2, “Amide substituted indole compounds useful as TLR inhibitors” (BRISTOL-MYERS SQUIBB COMPANY, priority 2017, dated 2022).

pIC50: −log10 of the molar value.

One assay deals with human TLR7 (Homo sapiens (Human), UniProt Q9NYK1). Put plainly: TLR7 inhibition reporter assay (HEK-Blue SEAP reporter, gardiquimod stimulation). The format is cell-based. Particulars: HEK-Blue cells overexpressing human TLR7, gardiquimod 7.5 μM. Background: Reporter assays use an easily measured gene product as a stand-in for the process of interest.
human TLR7, sequence (Q9NYK1 27-1049): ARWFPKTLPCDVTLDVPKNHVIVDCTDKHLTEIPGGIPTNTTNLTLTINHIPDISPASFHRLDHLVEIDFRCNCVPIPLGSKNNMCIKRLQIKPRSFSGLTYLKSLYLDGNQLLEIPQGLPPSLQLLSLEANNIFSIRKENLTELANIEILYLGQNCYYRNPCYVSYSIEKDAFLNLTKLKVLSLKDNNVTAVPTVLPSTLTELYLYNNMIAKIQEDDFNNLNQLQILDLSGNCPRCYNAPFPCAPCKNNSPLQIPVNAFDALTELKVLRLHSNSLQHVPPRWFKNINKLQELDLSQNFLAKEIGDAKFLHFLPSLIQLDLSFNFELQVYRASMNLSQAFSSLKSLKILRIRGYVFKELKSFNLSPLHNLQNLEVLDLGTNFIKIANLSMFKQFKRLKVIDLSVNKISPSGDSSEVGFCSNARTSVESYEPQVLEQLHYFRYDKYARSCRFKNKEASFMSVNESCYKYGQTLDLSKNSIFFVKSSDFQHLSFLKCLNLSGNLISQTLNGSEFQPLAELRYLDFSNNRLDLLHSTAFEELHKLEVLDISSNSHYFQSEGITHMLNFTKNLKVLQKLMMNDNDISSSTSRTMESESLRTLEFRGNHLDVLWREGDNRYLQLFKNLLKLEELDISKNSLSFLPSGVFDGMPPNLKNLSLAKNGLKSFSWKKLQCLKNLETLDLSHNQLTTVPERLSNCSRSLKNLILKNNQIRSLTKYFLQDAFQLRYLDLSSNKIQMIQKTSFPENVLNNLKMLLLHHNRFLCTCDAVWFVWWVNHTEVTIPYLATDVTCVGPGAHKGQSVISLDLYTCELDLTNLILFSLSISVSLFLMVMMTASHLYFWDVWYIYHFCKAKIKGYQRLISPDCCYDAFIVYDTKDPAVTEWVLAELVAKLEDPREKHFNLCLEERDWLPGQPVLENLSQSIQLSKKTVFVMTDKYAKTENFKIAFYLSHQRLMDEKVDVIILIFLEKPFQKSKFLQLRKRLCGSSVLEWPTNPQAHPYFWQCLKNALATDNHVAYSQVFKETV
The target in the next assay is human TLR9 (Homo sapiens (Human), UniProt Q9NR96). The experiment in a line: TLR9 inhibition reporter assay (HEK-Blue SEAP reporter, ODN2006 stimulation).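 Note: SEAP reporter under IFN-β minimal promoter with five NF-κB and AP-1 sites, 22 h incubation, compounds 0.05 nM–50 µM, inhibition relative to agonist plus DMSO versus known inhibitor.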 Particulars: read-out: TLR9 IC50; HEK-Blue cells overexpressing human TLR9, ODN2006 5 nM, SEAP reporter.
human TLR9, sequence (Q9NR96 26-1032): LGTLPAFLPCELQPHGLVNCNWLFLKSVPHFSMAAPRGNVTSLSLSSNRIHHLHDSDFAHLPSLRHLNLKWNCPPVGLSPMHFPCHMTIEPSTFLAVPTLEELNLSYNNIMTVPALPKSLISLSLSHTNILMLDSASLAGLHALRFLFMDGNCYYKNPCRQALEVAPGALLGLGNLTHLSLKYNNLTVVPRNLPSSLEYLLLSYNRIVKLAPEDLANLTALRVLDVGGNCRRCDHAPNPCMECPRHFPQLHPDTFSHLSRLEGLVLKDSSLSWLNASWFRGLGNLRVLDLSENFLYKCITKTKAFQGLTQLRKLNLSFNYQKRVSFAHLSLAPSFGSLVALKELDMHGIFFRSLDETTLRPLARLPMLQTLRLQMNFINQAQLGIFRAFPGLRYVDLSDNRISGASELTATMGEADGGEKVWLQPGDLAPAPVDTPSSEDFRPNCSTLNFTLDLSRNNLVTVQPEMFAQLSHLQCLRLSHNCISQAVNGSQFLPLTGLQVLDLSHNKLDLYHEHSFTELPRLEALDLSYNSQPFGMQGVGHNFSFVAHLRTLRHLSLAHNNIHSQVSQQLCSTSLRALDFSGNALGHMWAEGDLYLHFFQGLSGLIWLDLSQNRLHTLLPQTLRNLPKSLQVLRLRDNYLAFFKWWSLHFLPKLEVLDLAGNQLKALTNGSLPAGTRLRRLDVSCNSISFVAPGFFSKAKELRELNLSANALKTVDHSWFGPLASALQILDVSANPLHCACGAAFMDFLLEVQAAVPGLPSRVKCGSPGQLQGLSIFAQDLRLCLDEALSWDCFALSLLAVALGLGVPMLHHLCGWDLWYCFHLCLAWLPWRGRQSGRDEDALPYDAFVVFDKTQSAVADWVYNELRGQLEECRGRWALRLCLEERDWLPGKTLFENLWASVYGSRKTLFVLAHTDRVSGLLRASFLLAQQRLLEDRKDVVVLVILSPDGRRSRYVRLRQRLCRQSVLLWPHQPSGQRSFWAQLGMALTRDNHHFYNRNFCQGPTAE
For a further assay, the target named is human TLR8 (Homo sapiens (Human), UniProt Q9NR97). Put plainly: TLR8 inhibition reporter assay (HEK-Blue SEAP reporter, R848 stimulation).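 Note: SEAP driven by IFN-β minimal promoter with NF-κB and AP-1 sites, 22 h incubation, compounds 0.05 nM–50 µM, inhibition scaled between agonist plus DMSO and reference inhibitor wells.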 Particulars: read-out: TLR8 IC50; HEK-Blue cells overexpressing human TLR8, R848 15.9 μM, SEAP reporter.
human TLR8, sequence (Q9NR97 27-1041): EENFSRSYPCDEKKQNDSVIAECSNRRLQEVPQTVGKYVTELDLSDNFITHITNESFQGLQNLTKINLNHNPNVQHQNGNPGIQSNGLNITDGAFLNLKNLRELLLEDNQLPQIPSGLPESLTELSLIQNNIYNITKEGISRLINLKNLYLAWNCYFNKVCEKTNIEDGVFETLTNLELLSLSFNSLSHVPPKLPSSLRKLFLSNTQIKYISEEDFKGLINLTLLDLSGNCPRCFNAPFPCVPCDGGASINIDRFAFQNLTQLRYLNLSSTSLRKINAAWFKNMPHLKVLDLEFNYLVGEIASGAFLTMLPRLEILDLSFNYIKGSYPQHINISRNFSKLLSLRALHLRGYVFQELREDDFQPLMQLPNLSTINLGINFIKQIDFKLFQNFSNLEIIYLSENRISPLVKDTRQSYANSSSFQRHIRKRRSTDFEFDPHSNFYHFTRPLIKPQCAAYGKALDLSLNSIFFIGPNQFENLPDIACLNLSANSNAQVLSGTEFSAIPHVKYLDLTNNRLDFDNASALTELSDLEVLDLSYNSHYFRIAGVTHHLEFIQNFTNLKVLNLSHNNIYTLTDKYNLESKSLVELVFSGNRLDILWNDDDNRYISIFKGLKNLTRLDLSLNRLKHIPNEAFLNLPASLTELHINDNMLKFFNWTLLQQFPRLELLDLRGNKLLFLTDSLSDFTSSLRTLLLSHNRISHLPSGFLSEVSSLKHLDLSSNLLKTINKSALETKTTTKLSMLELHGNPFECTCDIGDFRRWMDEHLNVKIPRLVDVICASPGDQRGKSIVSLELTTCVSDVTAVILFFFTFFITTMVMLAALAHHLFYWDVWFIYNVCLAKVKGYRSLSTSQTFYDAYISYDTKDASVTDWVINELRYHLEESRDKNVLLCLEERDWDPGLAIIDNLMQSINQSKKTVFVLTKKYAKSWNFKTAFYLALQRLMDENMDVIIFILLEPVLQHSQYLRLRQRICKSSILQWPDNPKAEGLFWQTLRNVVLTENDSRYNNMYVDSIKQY

Method for human TLR9: HEK-Blue™-cells (Invivogen) overexpressing human TLR7, TLR8 or TLR9 receptors were used for screening inhibitors of these receptors using an inducible SEAP (secreted embryonic alkaline phosphatase) reporter gene under the control of the IFN-β minimal promoter fused to five NF-κB and AP-1-binding sites. Briefly, cells are seeded into Greiner 384 well plates (15000 cells per well for TLR7, 20,000 for TLR8 and 25,000 for TLR9) and then treated with test compounds in DMSO to yield a final dose response concentration range of 0.05 nM-50 μM. After a 30 minute compound pre-treatment at room temperature, the cells are then stimulated with a TLR7 ligand (gardiquimod at a final concentration of 7.5 μM), TLR8 ligand (R848 at a final concentration of 15.9 μM) or TLR9 ligand (ODN2006 at a final concentration of 5 nM) to activate NF-κB and AP-1 which induce the production of SEAP. After a 22 hour incubation at 37° C., 5% CO2, SEAP levels are determined with the addition of HEK-Blue™ Detection reagent (Invivogen), a cell culture medium that allows for detection of SEAP, according to manufacturer's specifications.

With `Cc1cc(-c2[nH]c3ccc(C(C)C(=O)N4CCCC5(CCCCC5N)C4)cc3c2C(C)C)ccn1` (stereo not drawn) [Example 201, 1-(7-amino-2-azaspiro[5.5]undecan-2-yl)-2-(3-isopropyl-2-(2-methylpyridin-4-yl)-1H-indol-5-yl)propan-1-one], the pIC50 (commonly −log10 of the IC50, conventionally taken in molar units) at human TLR7 was 7.13; at human TLR9, 5.73; at human TLR8, 7.15.

As to `Cc1cc(-c2[nH]c3ccc(C(C)C(=O)N4CCC(CN)CC4)cc3c2C(C)C)ccn1` (stereo not drawn) [Example 202, 1-(4-(aminomethyl)piperidin-1-yl)-2-(3-isopropyl-2-(2-methylpyridin-4-yl)-1H-indol-5-yl)propan-1-one], the pIC50 was 6.76 against human TLR7, 5.87 at human TLR9 and 6.27 at human TLR8.

Regarding `Cc1cc(-c2[nH]c3ccc(C(C)C(=O)N4CCC(N)CC4)cc3c2C(C)C)ccn1` (stereo not drawn) [Example 203, 1-(4-aminopiperidin-1-yl)-2-(3-isopropyl-2-(2-methylpyridin-4-yl)-1H-indol-5-yl)propan-1-one], the results for the pIC50 on human TLR7, on human TLR9 and on human TLR8 were 6.53, 6.13 and 6.44, respectively.

As for `Cc1cc(-c2[nH]c3ccc(C(C)C(=O)N4CCC[C@H](N)C4)cc3c2C(C)C)ccn1` (stereo partly drawn) [Example 204, 1-((S)-3-aminopiperidin-1-yl)-2-(3-isopropyl-2-(2-methylpyridin-4-yl)-1H-indol-5-yl)propan-1-one], the results for the pIC50 at human TLR7, at human TLR9 and at human TLR8 were 7.13, 6.03 and 6.92, respectively.

Turning to `Cc1cc(-c2[nH]c3ccc(C(C)C(=O)N4CCCC(CN)C4)cc3c2C(C)C)ccn1` (stereo not drawn) [Example 205, 1-(3-(aminomethyl)piperidin-1-yl)-2-(3-isopropyl-2-(2-methylpyridin-4-yl)-1H-indol-5-yl)propan-1-one], the values for the pIC50 against human TLR7, at human TLR9 and on human TLR8 were 6.56, 5.61 and 6.47, respectively.

For `Cc1cc(-c2[nH]c3ccc(C(C)C(=O)N4CCCC(CCN)C4)cc3c2C(C)C)ccn1` (stereo not drawn) [Example 206, 1-(3-(2-aminoethyl)piperidin-1-yl)-2-(3-isopropyl-2-(2-methylpyridin-4-yl)-1H-indol-5-yl)propan-1-one], the pIC50 was 6.29 at human TLR7, 6.16 at human TLR9 and 6.90 on human TLR8.

In the case of `Cc1cc(-c2[nH]c3ccc(C(C)C(=O)N(C)C4CCNCC4)cc3c2C(C)C)ccn1` (stereo not drawn) [Example 207, 2-(3-isopropyl-2-(2-methylpyridin-4-yl)-1H-indol-5-yl)-N-methyl-N-(piperidin-4-yl)propanamide], the pIC50 on human TLR7 is 6.76; at human TLR9, 6.40; on human TLR8, 6.81.

With `Cc1cc(-c2[nH]c3ccc(C(C)C(=O)NC[C@@H]4CCNC4)cc3c2C(C)C)ccn1` (stereo partly drawn) [Example 208, 2-(3-isopropyl-2-(2-methylpyridin-4-yl)-1H-indol-5-yl)-N—(((R)-pyrrolidin-3-yl)methyl)propanamide], the pIC50 was 5.89 on human TLR7, 5.14 on human TLR9 and 5.59 on human TLR8.

With `Cc1cc(-c2[nH]c3ccc(C(C)C(=O)N(C)C4CCCNC4)cc3c2C(C)C)ccn1` (stereo not drawn) [Example 209, 2-(3-isopropyl-2-(2-methylpyridin-4-yl)-1H-indol-5-yl)-N-methyl-N-(piperidin-3-yl)propanamide], the pIC50 at human TLR7 is 6.99; on human TLR9, 6.16; at human TLR8 it was 7.02.

As to `Cc1cc(-c2[nH]c3ccc(C(C)C(=O)N(C)C4CCCNC4)cc3c2C(C)C)ccn1` (stereo not drawn) [Example 210, 2-(3-isopropyl-2-(2-methylpyridin-4-yl)-1H-indol-5-yl)-N-methyl-N-(piperidin-3-yl)propanamide], the pIC50 is 6.55 against human TLR7, 6.14 at human TLR9 and 6.68 on human TLR8.

For the compound `Cc1cc(-c2[nH]c3ccc(C(C)C(=O)N(C)C4CN5CCC4CC5)cc3c2C(C)C)ccn1` (stereo not drawn) [Example 211, 2-(3-isopropyl-2-(2-methylpyridin-4-yl)-1H-indol-5-yl)-N-methyl-N-(quinuclidin-3-yl)propanamide], the pIC50 against human TLR7 was 7.30; on human TLR9, 6.33; at human TLR8, 7.29.

`Cc1cc(-c2[nH]c3ccc(C(C)C(=O)NC[C@H]4CCNC4)cc3c2C(C)C)ccn1` (stereo partly drawn) [Example 212, 2-(3-isopropyl-2-(2-methylpyridin-4-yl)-1H-indol-5-yl)-N—(((S)-pyrrolidin-3-yl)methyl)propanamide]: the results for the pIC50 against human TLR7, at human TLR9 and on human TLR8 were 6.09, 5.30 and 5.83, respectively.

With `Cc1cc(-c2[nH]c3ccc(C(C)C(=O)NCC4CCCNC4)cc3c2C(C)C)ccn1` (stereo not drawn) [Example 213, 2-(3-isopropyl-2-(2-methylpyridin-4-yl)-1H-indol-5-yl)-N-(piperidin-3-ylmethyl)propanamide], the pIC50 was 6.33 on human TLR7, 5.58 at human TLR9 and 6.62 on human TLR8.

Take `Cc1cc(-c2[nH]c3ccc(C(C)C(=O)NC4C[C@H]5CC[C@@H](C4)N5C)cc3c2C(C)C)ccn1` (stereo partly drawn) [Example 214, 2-(3-isopropyl-2-(2-methylpyridin-4-yl)-1H-indol-5-yl)-N-((1R,5S)-8-methyl-8-azabicyclo[3.2.1]octan-3-yl)propanamide]: the pIC50 is 6.97 against human TLR7, 5.33 at human TLR9 and 6.78 on human TLR8.

As to `Cc1cc(-c2[nH]c3ccc(C(C)C(=O)N[C@@H]4CCCC[C@H]4N)cc3c2C(C)C)ccn1` (stereo partly drawn) [Example 215, N-((1R,2R)-2-aminocyclohexyl)-2-(3-isopropyl-2-(2-methylpyridin-4-yl)-1H-indol-5-yl)propanamide], the negative logarithm of the IC50 (pIC50) at human TLR7 was 6.83; at human TLR9, 5.86; on human TLR8 it was 6.76.

In the case of `Cc1cc(-c2[nH]c3ccc(C(C)C(=O)N[C@@H]4CCCC[C@H]4N)cc3c2C(C)C)ccn1` (stereo partly drawn) [Example 216, N-((1R,2R)-2-aminocyclohexyl)-2-(3-isopropyl-2-(2-methylpyridin-4-yl)-1H-indol-5-yl)propanamide], the pIC50 against human TLR7 is 6.88; at human TLR9, 5.98; at human TLR8, 6.80.

Regarding `Cc1cc(-c2[nH]c3ccc(C(C)C(=O)NC4CCC(N)CC4)cc3c2C(C)C)ccn1` (stereo not drawn) [Example 217, N-(4-aminocyclohexyl)-2-(3-isopropyl-2-(2-methylpyridin-4-yl)-1H-indol-5-yl)propanamide], the pIC50 at human TLR7 was 6.78; on human TLR9, 6.00; at human TLR8, 6.50.

Consider `Cc1cc(-c2[nH]c3ccc(C(C)C(=O)NC4CCCC(N)C4)cc3c2C(C)C)ccn1` (stereo not drawn) [Example 218, N-(3-aminocyclohexyl)-2-(3-isopropyl-2-(2-methylpyridin-4-yl)-1H-indol-5-yl)propanamide], for which the pIC50 against human TLR7 is 6.10; on human TLR9, 5.85; at human TLR8, 5.97.

As for `Cc1cc(-c2[nH]c3ccc(C(C)C(=O)NC4CCCC(N)C4)cc3c2C(C)C)ccn1` (stereo not drawn) [Example 219, N-(3-aminocyclohexyl)-2-(3-isopropyl-2-(2-methylpyridin-4-yl)-1H-indol-5-yl)propanamide], the values for the pIC50 on human TLR7, on human TLR9 and on human TLR8 were 6.59, 5.76 and 6.74, respectively.

For the compound `Cc1c(-c2[nH]c3ccc(C(=O)N(C)CCN(C)C)cc3c2C(C)C)cn(C)c(=O)c1Cl` [Example 222, 2-(5-chloro-1,4-dimethyl-6-oxo-1,6-dihydropyridin-3-yl)-N-(2-(dimethylamino)ethyl)-3-isopropyl-N-methyl-1H-indole-5-carboxamide], the figures for the pIC50 on human TLR7, on human TLR9 and on human TLR8 were 7.66, 5.16 and 8.00, respectively.
